Reference: patent US11299461B2 (priority 2018, dated 2022)

Target: LF 263-C catalytic domain (anthrax lethal factor) (Bacillus anthracis, UniProt P15917)
Experiment: biochemical

Chain of LF 263-C catalytic domain (anthrax lethal factor) (P15917 296-809 limits assumed): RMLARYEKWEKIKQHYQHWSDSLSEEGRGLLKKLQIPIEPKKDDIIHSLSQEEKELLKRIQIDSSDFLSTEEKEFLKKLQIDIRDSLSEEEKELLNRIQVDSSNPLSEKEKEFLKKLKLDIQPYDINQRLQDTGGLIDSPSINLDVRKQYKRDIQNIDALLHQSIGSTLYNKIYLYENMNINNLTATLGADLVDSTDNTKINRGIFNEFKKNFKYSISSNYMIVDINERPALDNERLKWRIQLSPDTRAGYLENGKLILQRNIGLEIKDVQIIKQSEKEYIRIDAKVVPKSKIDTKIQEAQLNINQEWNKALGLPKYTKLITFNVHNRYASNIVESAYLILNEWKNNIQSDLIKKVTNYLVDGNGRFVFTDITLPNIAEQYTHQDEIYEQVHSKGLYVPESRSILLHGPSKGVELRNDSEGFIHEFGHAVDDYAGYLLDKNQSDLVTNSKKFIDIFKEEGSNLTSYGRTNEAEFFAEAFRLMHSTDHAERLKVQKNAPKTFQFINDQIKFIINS

Compound	Ki
Cc1ccc([C@@H](CO)NCCCC[C@@H](Nc2cc(C)c(F)c(C)c2)C(=O)NO)nc1 [Compound 1, (R)-2-((4-fluoro-3,5-dimethylphenyl)amino)-N-hydroxy-6-(((S)-2-hydroxy-1-(5-methylpyridin-2-yl)ethyl)amino)hexanamide]	0.17 nM
Cc1cc(N[C@H](CCCCN[C@H](CO)c2ccc(F)cn2)C(=O)NO)cc(C)c1F [Compound 2, (R)-2-((4-fluoro-3,5-dimethylphenyl)amino)-6-(((S)-1-(5-fluoropyridin-2-yl)-2-hydroxyethyl)amino)-N-hydroxyhexanamide]	0.14 nM
Cc1cc(N[C@H](CCCCN[C@@H](c2ccc(F)cn2)C(C)C)C(=O)NO)cc(C)c1F [Compound 3, (R)-2-((4-fluoro-3,5-dimethylphenyl)amino)-6-(((R)-1-(5-fluoropyridin-2-yl)-2-methylpropyl)amino)-N-hydroxyhexanamide]	0.2 nM
Cc1cc(N[C@H](CCCCN[C@@H](c2ccc(Cl)cn2)C(C)C)C(=O)NO)cc(C)c1F [Compound 4, (R)-6-(((R)-1-(5-chloropyridin-2-yl)-2-methylpropyl)amino)-2-((4-fluoro-3,5-dimethylphenyl)amino)-N-hydroxyhexanamide]	0.45 nM
CC[C@@H](NCCCC[C@@H](Nc1cc(C)c(F)c(C)c1)C(=O)NO)c1ncc(F)cc1F [Compound 5, (R)-6-(((R)-1-(3,5-difluoropyridin-2-yl)propyl)amino)-2-((4-fluoro-3,5-dimethylphenyl)amino)-N-hydroxyhexanamide]	0.39 nM
Cc1cc(N[C@H](CCCCN[C@@H](c2ncc(F)cc2F)C(C)C)C(=O)NO)cc(C)c1F [Compound 6, (R)-6-(((R)-1-(3,5-difluoropyridin-2-yl)-2-methylpropyl)amino)-2-((4-fluoro-3,5-dimethylphenyl)amino)-N-hydroxyhexanamide]	0.28 nM
Cc1cc(N[C@H](CCCCN[C@H](C)c2ccc(Cl)cn2)C(=O)NO)cc(C)c1F [Compound 7, (R)-6-(((R)-1-(5-chloropyridin-2-yl)ethyl)amino)-2-((4-fluoro-3,5-dimethylphenyl)amino)-N-hydroxyhexanamide]	0.35 nM
CC[C@@H](NCCCC[C@@H](Nc1cc(C)c(F)c(C)c1)C(=O)NO)c1ccc(F)cn1 [Compound 8, (R)-2-((4-fluoro-3,5-dimethylphenyl)amino)-6-(((R)-1-(5-fluoropyridin-2-yl)propyl)amino)-N-hydroxyhexanamide]	0.57 nM
Cc1cc(C[C@H](CCCCNCc2ccccn2)C(=O)NO)cc(C)c1F [Compound 9, (S)-2-(4-fluoro-3,5-dimethylbenzyl)-N-hydroxy-6-((pyridin-2-ylmethyl)amino)hexanamide]	1 nM
Cc1cc(C[C@H](CCCCN[C@H](C)c2ccc(F)cn2)C(=O)NO)cc(C)c1F [Compound 10, (S)-2-(4-fluoro-3,5-dimethylbenzyl)-6-(((R)-1-(5-fluoropyridin-2-yl)ethyl)amino)-N-hydroxyhexanamide]	0.15 nM
Cc1ccc([C@@H](C)NCCCC[C@@H](Cc2cc(C)c(F)c(C)c2)C(=O)NO)nc1 [Compound 11, (S)-2-(4-fluoro-3,5-dimethylbenzyl)-N-hydroxy-6-(((R)-1-(5-methylpyridin-2-yl)ethyl)amino)hexanamide]	0.08 nM
Cc1cc(C[C@H](CCCCN[C@H](CO)c2ccc(F)cn2)C(=O)NO)cc(C)c1F [Compound 12, (S)-2-(4-fluoro-3,5-dimethylbenzyl)-6-(((S)-1-(5-fluoropyridin-2-yl)-2-hydroxyethyl)amino)-N-hydroxyhexanamide]	0.08 nM
Cc1ccc([C@@H](CO)NCCCC[C@@H](Cc2cc(C)c(F)c(C)c2)C(=O)NO)nc1 [Compound 13, (S)-2-(4-fluoro-3,5-dimethylbenzyl)-N-hydroxy-6-(((S)-2-hydroxy-1-(5-methylpyridin-2-yl)ethyl)amino)hexanamide]	0.07 nM
Cc1cc(C[C@H](CCCCN[C@H](C)c2ccc(C(F)(F)F)cn2)C(=O)NO)cc(C)c1F [Compound 14, (S)-2-(4-fluoro-3,5-dimethylbenzyl)-N-hydroxy-6-(((R)-1-(5-(trifluoromethyl)pyridin-2-yl)ethyl)amino)hexanamide]	1.3 nM
CCN(CCCC[C@@H](Cc1cc(C)c(F)c(C)c1)C(=O)NO)[C@H](C)c1ccc(C(F)(F)F)cn1 [Compound 15, (S)-6-(ethyl((R)-1-(5-(trifluoromethyl)pyridin-2-yl)ethyl)amino)-2-(4-fluoro-3,5-dimethylbenzyl)-N-hydroxyhexanamide]	3.6 nM
COc1ccc([C@@H](C)NCCCC[C@@H](Cc2cc(C)c(F)c(C)c2)C(=O)NO)nc1 [Compound 16, (S)-2-(4-fluoro-3,5-dimethylbenzyl)-N-hydroxy-6-(((R)-1-(5-methoxypyridin-2-yl)ethyl)amino)hexanamide]	0.31 nM
CCN(CCCC[C@@H](Cc1cc(C)c(F)c(C)c1)C(=O)NO)[C@H](C)c1ccc(OC)cn1 [Compound 17, (S)-6-(ethyl((R)-1-(5-methoxypyridin-2-yl)ethyl)amino)-2-(4-fluoro-3,5-dimethylbenzyl)-N-hydroxyhexanamide]	4.5 nM

Compound	Ki
Cc1cc(C[C@H](CCCCN(C)Cc2ccc(F)cn2)C(=O)NO)cc(C)c1F [Compound 18, (S)-2-(4-fluoro-3,5-dimethylbenzyl)-6-(((5-fluoropyridin-2-yl)methyl)(methyl)amino)-N-hydroxyhexanamide]	1.6 nM
COc1ccc(CN(C)CCCC[C@@H](Cc2cc(C)c(F)c(C)c2)C(=O)NO)nc1 [Compound 19, (S)-2-(4-fluoro-3,5-dimethylbenzyl)-N-hydroxy-6-(((5-methoxypyridin-2-yl)methyl)(methyl)amino)hexanamide]	1.4 nM
Cc1cc(C[C@H](CCCCNC(C)(C)c2ccc(F)cn2)C(=O)NO)cc(C)c1F [Compound 20, (S)-2-(4-fluoro-3,5-dimethylbenzyl)-6-((2-(5-fluoropyridin-2-yl)propan-2-yl)amino)-N-hydroxyhexanamide]	0.19 nM
Cc1cc(C[C@H](CCCCN[C@@H](c2ccc(F)cn2)C(C)C)C(=O)NO)cc(C)c1F [Compound 21, (S)-2-(4-fluoro-3,5-dimethylbenzyl)-6-(((R)-1-(5-fluoropyridin-2-yl)-2-methylpropyl)amino)-N-hydroxyhexanamide]	0.11 nM
Cc1cc(C[C@H](CCCCN[C@@H](c2ccc(Cl)cn2)C(C)C)C(=O)NO)cc(C)c1F [Compound 22, (S)-6-(((R)-1-(5-chloropyridin-2-yl)-2-methylpropyl)amino)-2-(4-fluoro-3,5-dimethylbenzyl)-N-hydroxyhexanamide]	0.17 nM
Cc1cc(C[C@H](CCCCN[C@@H](c2ncc(F)cc2F)C(C)C)C(=O)NO)cc(C)c1F [Compound 23, (S)-6-(((R)-1-(3,5-difluoropyridin-2-yl)-2-methylpropyl)amino)-2-(4-fluoro-3,5-dimethylbenzyl)-N-hydroxyhexanamide]	0.25 nM
Cc1cc(C[C@H](CCCCN[C@@H](C)c2ccc(F)cn2)C(=O)NO)cc(C)c1F [Compound 24, (S)-2-(4-fluoro-3,5-dimethylbenzyl)-6-(((S)-1-(5-fluoropyridin-2-yl)ethyl)amino)-N-hydroxyhexanamide]	0.44 nM
CC[C@@H](NCCCC[C@@H](Cc1cc(C)c(F)c(C)c1)C(=O)NO)c1ncc(F)cc1F [Compound 25, (S)-6-(((R)-1-(3,5-difluoropyridin-2-yl)propyl)amino)-2-(4-fluoro-3,5-dimethylbenzyl)-N-hydroxyhexanamide]	0.12 nM
Cc1cc(C[C@H](CCCCN[C@H](c2ccc(F)cn2)C(C)C)C(=O)NO)cc(C)c1F [Compound 26, (S)-2-(4-fluoro-3,5-dimethylbenzyl)-6-(((S)-1-(5-fluoropyridin-2-yl)-2-methylpropyl)amino)-N-hydroxyhexanamide]	0.87 nM
Cc1cc(C[C@H](CCCCN[C@H](C)c2ccc(Cl)cn2)C(=O)NO)cc(C)c1F [Compound 27, (S)-6-(((R)-1-(5-chloropyridin-2-yl)ethyl)amino)-2-(4-fluoro-3,5-dimethylbenzyl)-N-hydroxyhexanamide]	0.08 nM
CC[C@@H](NCCCC[C@@H](Cc1cc(C)c(F)c(C)c1)C(=O)NO)c1ccc(F)cn1 [Compound 28, (S)-2-(4-fluoro-3,5-dimethylbenzyl)-6-(((R)-1-(5-fluoropyridin-2-yl)propyl)amino)-N-hydroxyhexanamide]	0.08 nM
Cc1cc(C[C@H](CCCCN(C)Cc2ccc(F)cn2)C(=O)NO)cc(Cl)c1F [Compound 29, (S)-2-(3-chloro-4-fluoro-5-methylbenzyl)-6-(((5-fluoropyridin-2-yl)methyl)(methyl)amino)-N-hydroxyhexanamide]	1.1 nM
Cc1cc(C[C@H](CCCCN[C@@H](c2ccc(F)cn2)C(C)C)C(=O)NO)cc(Cl)c1F [Compound 30, (S)-2-(3-chloro-4-fluoro-5-methylbenzyl)-6-(((R)-1-(5-fluoropyridin-2-yl)-2-methylpropyl)amino)-N-hydroxyhexanamide]	0.25 nM
Cc1cc(C[C@H](CCCCN[C@@H](c2ccc(Cl)cn2)C(C)C)C(=O)NO)cc(Cl)c1F [Compound 31, (S)-2-(3-chloro-4-fluoro-5-methylbenzyl)-6-(((R)-1-(5-chloropyridin-2-yl)-2-methylpropyl)amino)-N-hydroxyhexanamide]	0.26 nM
COc1ccc(CN(C)CCCC[C@@H](Cc2cc(C)c(F)c(Cl)c2)C(=O)NO)nc1 [Compound 32, (S)-2-(3-chloro-4-fluoro-5-methylbenzyl)-N-hydroxy-6-(((5-methoxypyridin-2-yl)methyl)(methyl)amino)hexanamide]	1.5 nM
CN(CCCC[C@@H](Cc1cc(Cl)c(F)c(Cl)c1)C(=O)NO)Cc1ccc(F)cn1 [Compound 33, (S)-2-(3,5-dichloro-4-fluorobenzyl)-6-(((5-fluoropyridin-2-yl)methyl)(methyl)amino)-N-hydroxyhexanamide]	1.6 nM
CC(C)[C@@H](NCCCC[C@@H](Cc1cc(Cl)c(F)c(Cl)c1)C(=O)NO)c1ccc(F)cn1 [Compound 34, (S)-2-(3,5-dichloro-4-fluorobenzyl)-6-(((R)-1-(5-fluoropyridin-2-yl)-2-methylpropyl)amino)-N-hydroxyhexanamide]	0.6 nM
